The Deep4Chem optical property database

Assay: solvent given as SMILES

## CCCCCCN1C(=O)c2cc(-c3ccc(-n4c5ccccc5c5ccccc54)cc3)c(-c3ccc(-n4c5ccccc5c5ccccc54)cc3)cc2C1=O
In ClC(Cl)Cl
  emission maximum: 548 nm
In c1ccc2c(c1)c1ccccc1n2-c1ccc(-c2ccc(-n3c4ccccc4c4ccccc43)cc2)cc1
  emission maximum: 481 nm

## O=C1c2ccc3c4ccc5c6c(ccc(c7ccc(c2c37)C(=O)N1c1ccncc1)c64)C(=O)N(c1ccncc1)C5=O
In C1CCOC1
  emission maximum: 570 nm
In C1COCCO1
  emission maximum: 572 nm
In CC(C)=O
  emission maximum: 570 nm
In CC(C)O
  emission maximum: 572 nm
In CCCCO
  emission maximum: 570 nm
In CCO
  emission maximum: 569 nm
In CCOC(C)=O
  emission maximum: 567 nm
In CN(C)C=O
  emission maximum: 574 nm
In CO
  emission maximum: 569 nm
In CS(C)=O
  emission maximum: 580 nm
In ClC(Cl)(Cl)Cl
  emission maximum: 573 nm
In ClC(Cl)Cl
  emission maximum: 576 nm

## F[B-]1(F)Oc2ccccc2-c2nc(-c3ccccc3)c3cc(Cl)ccc3[n+]21
In Cc1ccccc1
  emission maximum: 542 nm

## COc1ccc(-c2c3ccc([nH]3)c3nc(c(-c4ccc([N+](=O)[O-])cc4)c4ccc([nH]4)c4ccc([nH]4)c(-c4ccc(OC)cc4)c4ccc2o4)C=C3)cc1
In C1CCOC1
  emission maximum: 761 nm
In Cc1ccccc1
  emission maximum: 739 nm
In c1ccccc1
  emission maximum: 739 nm

## N#C/C(=C\c1ccc(C=C(c2ccccc2)c2ccccc2)cc1)c1ccc([N+](=O)[O-])cc1
In C1CCOC1
  emission maximum: 552 nm

## CCN(CC)c1ccc2cc(/C=C(\C#N)c3nc4ccccc4s3)c(=O)oc2c1
In C1COCCO1
  emission maximum: 570 nm
In CC#N
  emission maximum: 596 nm
In CCO
  emission maximum: 594 nm
In CCOC(C)=O
  emission maximum: 576 nm
In CN(C)C=O
  emission maximum: 605 nm
In CO
  emission maximum: 598 nm
In CS(C)=O
  emission maximum: 613 nm
In Cc1ccccc1
  emission maximum: 567 nm
In ClCCl
  emission maximum: 580 nm

## CC(C)[Si](C#Cc1c2cc3ccccc3cc2c(C#C[Si](C(C)C)(C(C)C)C(C)C)c2nc3c(ccc4ccccc43)nc12)(C(C)C)C(C)C
In CCCCCC
  emission maximum: 661 nm

## O=C1CCCc2c1[nH]c1cc3c(cc21)OCO3
In C1CCOC1
  emission maximum: 403.84 nm
In CC#N
  emission maximum: 399.42 nm
In CCCCCCO
  emission maximum: 430.73 nm
In CCO
  emission maximum: 437.63 nm
In CCOC(C)=O
  emission maximum: 388.9 nm
In CS(C)=O
  emission maximum: 403.54 nm
In O
  emission maximum: 463.6 nm
In c1ccccc1
  emission maximum: 384.12 nm

## CN(C)c1cc2oc3cc(N(C)C)c(F)cc3c(=O)c2cc1F
In CCO
  emission maximum: 446 nm

## CN(C)c1ccc(C#Cc2cc(C#Cc3ccc(N(C)C)cc3)c3ccc4c(C#Cc5ccc(C(F)(F)F)cc5)cc(C#Cc5ccc(N(C)C)cc5)c5ccc2c3c54)cc1
In ClCCl
  emission maximum: 576 nm

## COc1ccc(-c2nc(-c3ccccc3OC)[nH]c2-c2ccc(OC)cc2)cc1
In CO
  emission maximum: 392 nm

## CC1(C)c2ccccc2N(c2ccc3c(c2)c2cc(N4c5ccccc5C(C)(C)c5ccccc54)ccc2c2nc4ccccc4nc32)c2ccccc21
In Cc1ccccc1
  emission maximum: 553 nm
In c1cc(-c2cccc(-n3c4ccccc4c4ccccc43)c2)cc(-n2c3ccccc3c3ccccc32)c1
  emission maximum: 565 nm

## Cc1ccc2c(c1)C1(c3ccccc3Oc3ccccc31)c1cc(C)ccc1N2c1ccc(-c2nc(-c3ccccc3)cc(-c3ccccc3)n2)cc1
In Cc1ccccc1
  emission maximum: 451 nm
In O=P(c1ccccc1)(c1ccccc1)c1ccc2oc3ccc(P(=O)(c4ccccc4)c4ccccc4)cc3c2c1
  emission maximum: 452 nm

## O=c1oc2ccccc2cc1-c1nc2ccccc2o1
In C1CCOC1
  emission maximum: 444 nm
In C1COCCO1
  emission maximum: 443 nm
In CC1CCCCC1
  emission maximum: 438 nm
In CC#N
  emission maximum: 443 nm
In CC(C)=O
  emission maximum: 444 nm
In CC(C)CO
  emission maximum: 445 nm
In CC(C)O
  emission maximum: 444 nm
In CCOC(C)=O
  emission maximum: 443 nm
In CN(C)C=O
  emission maximum: 445 nm
In CO
  emission maximum: 440 nm
In CS(C)=O
  emission maximum: 453 nm
In Cc1ccccc1
  emission maximum: 445 nm
In ClC(Cl)(Cl)Cl
  emission maximum: 444 nm
In ClC(Cl)Cl
  emission maximum: 443 nm
In OCCO
  emission maximum: 447 nm

## CC(C)(C)NC(=O)c1ccc(-c2ccccc2)c2ccc3c4ccccc4c4ccccc4c3c12
In ClCCl
  emission maximum: 413 nm

## CC(C)(C)c1ccc(-c2cc(-c3ccc(-c4cc(-c5ccc(C(C)(C)C)cc5)c(C(=O)N5CCCCC5)s4)s3)sc2C(=O)N2CCCCC2)cc1
In ClCCl
  emission maximum: 461 nm

## O=C1OC(c2ccccc2)=C/C1=C\c1ccc([N+](=O)[O-])cc1
In C1COCCO1
  emission maximum: 518 nm

## CCn1c2ccccc2c2cc(C#Cc3cc(C#Cc4ccc5c(c4)c4ccccc4n5CC)nc(N4CCCCC4)n3)ccc21
In C1CCOC1
  emission maximum: 445 nm
In CCOC(C)=O
  emission maximum: 446 nm
In CN(C)C=O
  emission maximum: 469 nm
In Cc1ccccc1
  emission maximum: 438 nm
In ClCCl
  emission maximum: 450 nm

## COCc1ncc(-c2c3ccccc3c(-c3cnc(COC)nc3)c3ccccc23)cn1
In CCO
  emission maximum: 420 nm
In ClCCl
  emission maximum: 420 nm

## CCN(CC)c1ccc(-c2nc3c(c4c2-c2ccc(C#N)cc2CC4)-c2ccc(C#N)cc2CC3)cc1
In C1CCOC1
  emission maximum: 499 nm
In CC#N
  emission maximum: 525 nm
In CCCCCC
  emission maximum: 455 nm
In CCOC(C)=O
  emission maximum: 494 nm
In CO
  emission maximum: 525 nm
In CS(C)=O
  emission maximum: 541 nm
In Cc1ccccc1
  emission maximum: 474 nm
In ClCCl
  emission maximum: 493 nm
